Common to all, as to format: cell-based
In experiment [1] the test system is ERK phosphorylation. The experiment is described as follows: Western blot analysis of total and phosphorylated proteins. The conditions noted are these: all tested cell lines.
The subject of experiment [2] is Mel888. In words: Short-term growth-inhibition assay, PLX-4720 (Example 1). The conditions noted are these: Mel888 cell line; read-out: half-maximum inhibitory concentration (IC50). As to the method: (§1) FIGS. 1A-1B: Short-term growth-inhibition assay of a panel of melanoma cell lines including BRAF (V600E) cell lines and an NRAS (Q61R) mutated cell line. FIG. 1A. Cells were treated with increasing concentrations of N-[3-[(5-Chloro-1H-pyrrolo[2,3-b]pyridin-3-yl)carbonyl]-2,4-difluorophenyl]-1-propanesulfonamide (PLX-4720) for 72 h and cell viability was determined using CellTiter-Blue by measuring the absorbance at 540 nm in a microplate reader. Error bars show data +standard error. Means were derived from four replicates (n=4). FIG. 1B. Long-term colony formation assay of the indicated cells. Cells were grown in the absence or presence of PLX-4720 at the indicated concentrations for 15-20 days. For each cell line, all dishes were fixed at the same time, stained and photographed.
(§2) Cell proliferation was measured using a WST-1 reagent (Roche Applied Science, IN, USA). Melanoma cells were plated with 5000 cells per well in 96-well tissue culture plates. After 24 hours, the cells were treated with drugs or DMSO at the indicated concentrations, in triplicates. WST-1 reagent was added to the wells and incubated at 37° C. for 2 hours before and after the treatment period of 48 hours. The plates were then read at 450 nm on a Wallac Victor^3 1420 Multilabel Counter (Perkin Elmer, ON, Canada). Absorbance readings are expressed in terms of cell proliferation as percent of the control cells growth within the 48 hours of treatment.
(§3) The inventors quantified the effect of exposing these cell lines to PLX-4720 on the half-maximum inhibitory concentration (IC50) (Table 1).

The test system of experiment [3] is SK-Mel5. The description is as above. The conditions noted are these: Homo sapiens, SK-MEL-5; SK-Mel5 cell line; read-out: half-maximum inhibitory concentration (IC50). As to the method: as §1, §2, §3
Experiment [4] deals with Mel10. The experiment is described as above. The following applies: Mel10 cell line; read-out: half-maximum inhibitory concentration (IC50). As to the method: as §1, §2, §3
Experiment [5] has as its system eIF4F complex. The experiment is described as follows: Cap binding assay (m7GTP-Sepharose beads). On the procedure:
FIG. 3: Examination of eIF4F complex formation by the “cap binding assay” in the indicated cell lines. Eluates from the beads (m7G-bound) and total extracts (input) were analyzed on 4% to 12% gradient gel electrophoresis, followed by Western blotting with the indicated antibodies.
Cells were grown for 48 h in 10% Fetal Bovine Serum (FBS) followed by 24 h without FBS. Cells were subsequently grown for 12 h in the absence or the presence of trastuzumab. Cells were harvested and lysed in ice-cold lysis buffer (KCl 150 mM, Hepes pH 7.5 50 mM, DTT 2 mM, Tween 20 0.2%, and Complete Protease Inhibitor Cocktail from Roche). Cell lysates were incubated with 7-methyl-GTP-sepharose 4B beads (Amersham Biosciences) for 2 h at 4° C. Eluates from the beads (7 mG-bound) and total extracts (Tot.) were analyzed on 4-12% gradient gel electrophoresis followed by western blot. Experiments were repeated at least 4 times.
In a so-called “cap binding assay”, synthetic m7GTP-Sepharose beads were used to capture eIF4E and its binding partners, eIF4G (called Cap-ON complex) and 4EBP1 (called Cap-OFF complex). The inventors observed that following PLX-4720 treatment, the amount of eIF4E-bound 4EBP1 (Cap-OFF complex) was increased, whereas the quantity of eIF4E-bound eIF4G (Cap-ON complex), i.e. the formation of the active eIF4F complex, was decreased in the two PLX-4720-sensitive cell lines (A375, Mel888) (FIG. 3). In contrast, and consistent with the inventors' hypothesis, the formation of the eIF4F complex was unchanged in the two cell lines (Mel624, A2058) with less sensitivity to PLX-4720.

[6] abbreviates: sensitive cell lines A375, Mel888.

Some results are limits rather than exact numbers.

As for `CCCS(=O)(=O)Nc1ccc(F)c(C(=O)c2c[nH]c3ncc(Cl)cc23)c1F` [PLX-4720, N-[3-[(5-Chloro-1H-pyrrolo[2,3-b]pyridin-3-yl)carbonyl]-2,4-difluorophenyl]-1-propanesulfonamide], the “ERK phosphorylation downstream of BRAF” value in experiment [1] is reported as “inhibited ERK phosphorylation”. For the same molecule, the IC50 was 100 nM in experiment [2], 1500 nM in experiment [3] and > 10 µM in experiment [4]. Moreover, in experiment [5] (less sensitive cell lines Mel624, A2058), the “formation / disruption of the eIF4F (eIF4E-eIF4G) complex” value is “unchanged”. In experiment [5] (setting [6]), the “amount of eIF4E-bound 4EBP1 (Cap-OFF complex)” value is given as “increased”. Also, the “quantity of eIF4E-bound eIF4G (Cap-ON complex)” value in experiment [5] (setting [6]) was “decreased”.

(Values after US20240393340A1, “PROGNOSIS AND PREDICTIVE BIOMARKERS AND BIOLOGICAL APPLICATIONS THEREOF” (INSTITUT GUSTAVE ROUSSY, priority 2013, published 2024).)
